Reference: the supplement of paper PMC10307832

Legend:
Assay in all cases: relative viability (nuclei count vs DMSO), 5 days (fraction); higher = more cells survive
[1] = compound: CN[C@@H]1C[C@H]2O[C@@](C)([C@@H]1OC)n1c3ccccc3c3c4c(c5c6ccccc6n2c5c31)C(=O)NC4 [Staurosporine] + CC(=O)c1c(C)c2cnc(Nc3ccc(N4CCNCC4)cn3)nc2n(C2CCCC2)c1=O [Palbociclib] (partner 0.5 µM)
How it was run: (§1)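 Values are medians from duplicate plates. Each reflects relative viability, defined as the nuclei count of treated wells over that of vehicle wells. Lung cancer cell lines in 1536-well plates were pin-tool dosed one day after seeding with one drug alone or with a fixed anchor-drug dose plus five library-drug doses (not always all listed) in √10 steps, then fixed, stained and imaged at 4× after 5 days.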

[2] = compound: CN[C@@H]1C[C@H]2O[C@@](C)([C@@H]1OC)n1c3ccccc3c3c4c(c5c6ccccc6n2c5c31)C(=O)NC4 [Staurosporine] + COc1cc2c(Oc3ccc(NC(=O)C4(C(=O)Nc5ccc(F)cc5)CC4)cc3F)ccnc2cc1OCCCN1CCOCC1 [Foretinib] (partner 0.25 µM)
How it was run: as §1

[3] = compound: CC1=C(CC(=O)O)c2cc(F)ccc2/C1=C\c1ccc([S+](C)[O-])cc1 [Sulindac] + O=C(c1cc(Cc2n[nH]c(=O)c3ccccc23)ccc1F)N1CCN(C(=O)C2CC2)CC1 [Olaparib] (partner 8 µM)
How it was run: as §1

[4] = compound: O=c1[nH]cc(F)c(=O)[nH]1 [5-Fluorouracil] + Nc1ncn([C@H]2C[C@H](O)[C@@H](CO)O2)c(=O)n1 [Decitabine] (partner 2 µM)
How it was run: as §1

| Cell Line | relative viability ([1]; first compound 0.005 µM) | relative viability ([1]; first compound 0.05 µM) | relative viability ([1]; first compound 0.1581 µM) | relative viability ([1]; first compound 0.5 µM) | relative viability ([2]; first compound 0.005 µM) | relative viability ([2]; first compound 0.05 µM) | relative viability ([2]; first compound 0.1581 µM) | relative viability ([2]; first compound 0.5 µM) | relative viability ([3]; first compound 0.08 µM) | relative viability ([3]; first compound 0.253 µM) | relative viability ([3]; first compound 2.53 µM) | relative viability ([3]; first compound 8 µM) | relative viability ([4]; first compound 0.02 µM) | relative viability ([4]; first compound 0.2 µM) | relative viability ([4]; first compound 0.6325 µM) | relative viability ([4]; first compound 2 µM) | relative viability ([1]; first compound 0.01581 µM) | relative viability ([2]; first compound 0.01581 µM) | relative viability ([3]; first compound 0.8 µM) |
| --- | --- | --- | --- | --- | --- | --- | --- | --- | --- | --- | --- | --- | --- | --- | --- | --- | --- | --- | --- |
| HCC-366 | 0.297 | 0.113 | 0.0357 | 0.0204 | 1.07 | 0.799 | 0.105 | 0.303 | 0.338 | 0.356 | 0.399 | 0.508 | 0.344 | 0.32 | 0.194 | 0.128 | – | – | – |
| HCC-827 | 0.59 | 0.299 | 0.226 | 0.225 | 1.06 | 0.645 | 0.381 | 0.395 | 0.636 | 0.683 | 0.659 | 0.734 | 0.298 | 0.431 | 0.36 | 0.297 | 0.401 | 0.589 | 0.573 |
| HOP-62 | 0.334 | 0.116 | 0.106 | 0.0933 | 0.801 | 0.142 | 0.125 | 0.119 | 0.3 | 0.677 | 0.266 | 0.545 | 0.247 | 0.211 | 0.256 | 0.246 | 0.194 | 0.233 | 0.351 |
| IA-LM | – | – | – | – | 0.423 | 0.139 | 0.1 | 0.0733 | 0.932 | 0.925 | 0.953 | 0.881 | – | – | – | – | – | 0.109 | – |
| LC-2-ad | 0.537 | 0.279 | 0.168 | 0.109 | 0.845 | 0.236 | 0.175 | 0.169 | 0.746 | 0.677 | 0.686 | 0.66 | 0.806 | 0.725 | 0.561 | 0.417 | 0.328 | 0.537 | 0.676 |
| LCLC-97TM1 | 0.238 | 0.133 | 0.141 | 0.17 | 0.988 | 0.454 | 0.382 | 0.461 | 0.481 | 0.531 | 0.308 | 0.606 | 0.242 | 0.269 | 0.207 | 0.201 | 0.127 | 0.558 | 0.473 |
| LCLC-103H | 0.507 | 0.393 | 0.29 | 0.253 | 0.668 | 0.171 | 0.161 | 0.142 | 0.856 | 0.757 | 0.798 | 0.82 | 0.734 | 0.636 | 0.652 | 0.524 | 0.43 | 0.178 | 0.695 |
| LK-2 | 0.798 | 0.49 | 0.426 | 0.287 | 1.07 | 1.09 | 0.437 | 0.409 | 0.766 | 0.998 | 0.592 | 0.808 | 0.328 | 0.341 | 0.334 | 0.269 | 0.555 | – | 0.514 |
| LOU-NH91 | 0.535 | 0.475 | 0.314 | 0.28 | 0.923 | 0.627 | 0.512 | 0.238 | 0.955 | 0.961 | 0.893 | 1.01 | 0.873 | 0.874 | 0.838 | 0.534 | 0.446 | 0.816 | 0.84 |
| LU99A | 0.366 | 0.196 | 0.211 | 0.174 | 0.739 | 0.342 | 0.264 | 0.219 | 0.294 | 0.231 | 0.241 | 0.311 | 0.898 | 0.898 | 0.731 | 0.483 | 0.196 | 0.505 | 0.259 |
| LXF-289 | 0.717 | 0.16 | 0.141 | 0.117 | 1.01 | 0.268 | 0.0989 | 0.0792 | 1.24 | 1.18 | 1.18 | 1.19 | 0.384 | 0.402 | 0.34 | 0.323 | 0.21 | 0.164 | 0.873 |
| NCI-H23 | 0.255 | 0.162 | 0.147 | 0.131 | 0.898 | 0.43 | 0.258 | 0.387 | 0.32 | 0.319 | 0.258 | 0.282 | 0.33 | 0.295 | 0.367 | 0.279 | 0.253 | – | 0.367 |
| NCI-H522 | 1.19 | – | 0.638 | 0.502 | – | – | – | – | 0.694 | 0.735 | 0.633 | 0.61 | 0.642 | 0.58 | 0.622 | 0.722 | 0.877 | – | 0.558 |
| NCI-H596 | – | – | – | – | 1.32 | 0.587 | 0.297 | 0.305 | 0.567 | 0.697 | 0.716 | 0.639 | 1.15 | 0.999 | 0.902 | 0.706 | – | 0.839 | – |
| NCI-H1299 | – | – | – | – | 0.893 | 0.231 | 0.121 | 0.132 | 0.98 | 1.04 | 0.962 | 1.03 | – | – | – | – | – | 0.352 | 0.889 |
| NCI-H1563 | – | – | – | – | 0.696 | 0.575 | 0.611 | 0.463 | – | – | – | – | – | – | – | – | – | 0.612 | – |
| NCI-H1623 | – | – | – | – | 0.967 | 0.925 | 0.731 | 0.341 | – | – | – | – | – | – | – | – | – | 0.643 | – |
| NCI-H1648 | 0.23 | 0.249 | 0.279 | 0.258 | – | – | – | – | 1.38 | 0.827 | 0.997 | 0.695 | 0.541 | 0.528 | 0.47 | 0.371 | 0.227 | – | – |
| NCI-H1703 | – | – | – | – | 0.303 | 0.196 | 0.2 | 0.156 | 0.39 | 0.526 | 0.529 | 0.554 | – | – | – | – | – | 0.246 | 0.404 |
| NCI-H1792 | 0.614 | 0.323 | 0.274 | 0.26 | – | – | – | – | 0.429 | 0.449 | 0.453 | 0.725 | 0.514 | 0.473 | 0.27 | 0.202 | 0.577 | – | – |
| NCI-H2228 | 0.209 | 0.3 | 0.102 | 0.0805 | 0.889 | 0.317 | 0.11 | 0.0985 | 0.941 | 0.804 | 0.637 | 0.516 | – | – | – | – | 0.215 | 0.537 | 0.499 |
